From patent US20240173419A1, “CDK2 DEGRADERS AND USES THEREOF” (Kymera Therapeutics, Inc., priority 2022, published 2024)

Molecular target: T1, CDK2 (Homo sapiens, UniProt P24941)
T1 construct: endogenous in cells; host or cells: MKN1 cells
Test: CDK2 degradation in MKN1 cells (AlphaLISA)
Type: cell-based
Parameters: key to CDK2 degradation 14 h: Mean external-Abs DC50 (nM): A (<100 nM); B (≥100-500 nM); C (>500-1000 nM); D (>1000 nM); E (not achieved)
Conditions: 14 h incubation; for DC50: read-out: CDK2 degradation 14 h: Mean external-Abs DC50
Method: Degradation of CDK2 in MKN1 cells was measured using AlphaLISA technology (PerkinElmer ALSU-TCDK2-A10K). MKN1 cells were maintained in RPMI1640 medium containing 10% FBS+1× penn/strep. Cells were seeded in 96-well plates (Corning 3599) at a density of 2e4 cells per well in 80 μL of fresh complete growth medium. Cells were incubated overnight at 37° C., 5% CO2. Compounds were then added to the cell assay plates with a final top concentration of 10 μM in a 1:5 dilution series with a total of 11 doses (0.001 nM-10 μM). The final volume per well was 160 μL and the final DMSO concentration was 0.1%. Additionally, wells containing no cells and only complete growth medium were also maintained on the cell assay plates (‘no cell’ wells) and processed along with experimental wells. After 14 hour-incubation at 37° C., 5% CO2, the medium was removed and the cells were washed once with 100 μL of 1×PBS. Following removal of PBS, 40 μL of 1× Lysis Buffer containing 1× protease and phosphatase inhibitors (Roche 4693116001; Roche 4906837001) were added to each well. The cell assay plate was agitated on a plate shaker at 350 rpm for 10 minutes at room temperature. 10 μL of each cell lysate were transferred to a 384-well plate (PerkinElmer 6007290). 10 μL of control lysates (from PerkinElmer ALSU-TCDK2-A10K kit) were added to separate wells to generate a standard curve. Activation Buffer was prepared by diluting 25-fold in combined Reaction Buffer 1 and Reaction Buffer 2. Acceptor Beads were diluted 50-fold in combined Reaction Buffers. 5 μL of Acceptor Mix were added to each well. The plate was sealed with Topseal-Aadhesive film, covered with foil, and incubated in the dark for 1 hour at room temperature. Under subdued light, the Donor Beads were diluted 50-fold in Dilution Buffer. 5 μL of Donor Mix were added to each well under subdued light. The plate was sealed with Topseal-A adhesive film, covered with foil, and incubated in the dark for 1 hour at room temperature. Under subdued light, the plates were analyzed on an EnVision Microplate Reader (PerkinElmer Model 2009-0030). The average signal from ‘no cell’ wells was subtracted from the signal in experimental wells prior to calculating Alpha signal for test compounds and negative control (0.100 DMSO). The data were analyzed using Xlfit (v5.3. 1.3) and the dose-dependent CDK2 degradation data were fit using a four-parameter logistic model to calculate DC50.

SMILES	CDK2 degradation 14 h: Average Dmax %	DC50	CDK2 degradation 14 h: Mean external-Abs DC50 (nM)
Cc1cc(S(=O)(=O)C2CC3(CCN(CC4CCN(c5ccc6c(c5)n(C)c(=O)n6C5CCC(=O)NC5=O)CC4)CC3)C2)ccc1Nc1ncc2cc(Cl)c(=O)n(C3CCCC3)c2n1 (centres unmarked) [I-57]	A (A (>75% o))	< 100 nM	
Cc1cc(S(=O)(=O)C2CCN(CCC3CCN(c4cccc5c4n(C)c(=O)n5C4CCC(=O)NC4=O)CC3)CC2)ccc1Nc1ncc2cc(Cl)c(=O)n(C3CCCC34CC4)c2n1 (centres unmarked) [I-59]	A (A (>75% o))	< 100 nM	
Cc1cc(S(=O)(=O)C2CCC(CN(C)C3CCN(c4cccc5c4n(C)c(=O)n5C4CCC(=O)NC4=O)CC3)CC2)ccc1Nc1ncc2cc(Cl)c(=O)n(C3CCCC34CC4)c2n1 (centres unmarked) [I-60]	A (A (>75% o))	< 100 nM	
Cc1cc(S(=O)(=O)C2CCN(CCN3CCN(c4cccc5c4n(C)c(=O)n5C4CCC(=O)NC4=O)CC3)CC2)ccc1Nc1ncc(C(F)(F)F)c(-c2cnn(C)c2)n1 (centres unmarked) [I-61]	A (A (>75% o))	< 100 nM	
Cc1cc(S(=O)(=O)[C@H]2CC[C@H](CN(C)C3CCN(c4cccc5c4n(C)c(=O)n5C4CCC(=O)NC4=O)CC3)CC2)ccc1Nc1ncc2ccc(=O)n(C3CCCC3)c2n1 (some centres unmarked) [I-63]	A (A (>75% o))	< 100 nM	
Cc1cc(S(=O)(=O)C2CCN(CCN3CCN(c4cccc5c4n(C)c(=O)n5C4CCC(=O)NC4=O)CC3)CC2)ccc1Nc1ncc2cc(Cl)c(=O)n(C3CCCC3)c2n1 (centres unmarked) [I-64]	A (A (>75% o))	< 100 nM	
Cc1cc(S(=O)(=O)C(C)(C)CCO[C@H]2CC[C@H](CN3CCC(c4ccc5c(c4)n(C)c(=O)n5C4CCC(=O)NC4=O)CC3)CC2)ccc1Nc1ncc2cc(Cl)c(=O)n(C3CCCC3)c2n1 (some centres unmarked) [I-65]	A (A (>75% o))	< 100 nM	
Cc1cc(S(=O)(=O)C2CCC3(CC2)CN(CC2CCN(c4cccc5c4n(C)c(=O)n5C4CCC(=O)NC4=O)CC2)C3)ccc1Nc1ncc2cc(Cl)c(=O)n(C3CCCC3)c2n1 (centres unmarked) [I-66]	A (A (>75% o))	100 to 500 nM	
Cc1cc(S(=O)(=O)C2CC3(CCN(CC4CCN(c5ccc(F)c(NC6CCC(=O)NC6=O)c5)CC4)CC3)C2)ccc1Nc1ncc2cc(Cl)c(=O)n(C3CCCC3)c2n1 (centres unmarked) [I-70]	B (B (>50% -75%))	> 1000 nM	
Cc1cc(S(=O)(=O)C2CC3(CCN(CC4CCN(c5cccc(NC6CCC(=O)NC6=O)c5F)CC4)CC3)C2)ccc1Nc1ncc2cc(Cl)c(=O)n(C3CCCC3)c2n1 (centres unmarked) [I-71]	A (A (>75% o))	100 to 500 nM	
COc1cc(N2CCC(CN3CCC4(CC3)CC(S(=O)(=O)c3ccc(Nc5ncc6cc(Cl)c(=O)n(C7CCCC7)c6n5)c(C)c3)C4)CC2)ccc1NC1CCC(=O)NC1=O (centres unmarked) [I-72]	A (A (>75% o))	100 to 500 nM	
Cc1cc(S(=O)(=O)C2CC3(CCN(CC4CCN(c5cccc(OC6CCC(=O)NC6=O)c5)CC4)CC3)C2)ccc1Nc1ncc2cc(Cl)c(=O)n(C3CCCC3)c2n1 (centres unmarked) [I-74]	A (A (>75% o))	100 to 500 nM	
Cc1cc(S(=O)(=O)C2CC3(CCN(CC4CCN(c5ccc(NC6CCC(=O)NC6=O)c(C)c5)CC4)CC3)C2)ccc1Nc1ncc2cc(Cl)c(=O)n(C3CCCC3)c2n1 (centres unmarked) [I-76]	B (B (>50% -75%))	500 to 1000 nM	
Cc1cc(S(=O)(=O)C2CC3(CCN(CC4CCN(c5cccc(N6CCC(=O)NC6=O)c5)CC4)CC3)C2)ccc1Nc1ncc2cc(Cl)c(=O)n(C3CCCC3)c2n1 [I-78]	D (D (<25%))	> 1000 nM	
Cc1cc(S(=O)(=O)C2CC3(CCN(CC4CCN(c5ccc(C6CCC(=O)NC6=O)cc5)CC4)CC3)C2)ccc1Nc1ncc2cc(Cl)c(=O)n(C3CCCC3)c2n1 (centres unmarked) [I-81]	A (A (>75% o))	< 100 nM	
Cc1cc(S(=O)(=O)C2CC3(CCN(CC4CCN(c5cccc6c(N7CCC(=O)NC7=O)cncc56)CC4)CC3)C2)ccc1Nc1ncc2cc(Cl)c(=O)n(C3CCCC3)c2n1 [I-82]	A (A (>75% o))	< 100 nM	
Cc1cc(S(=O)(=O)C2CC3(CCN(CC4CCN(c5cccc6c5n(C)c(=O)n6C5CCC(=O)NC5=O)CC4)CC3)C2)ccc1Nc1ncc2cc(C(F)F)c(=O)n(C3CCCC3)c2n1 (centres unmarked) [I-86]	A (A (>75% o))	< 100 nM	
Cc1cc(S(=O)(=O)C2CC3(CCN(CC4CCN(c5cccc(NC6CCC(=O)NC6=O)c5)CC4)CC3)C2)ccc1Nc1ncc2cc(Cl)c(=O)n(C3CCCC3)c2n1 (centres unmarked) [I-87]	A (A (>75% o))	< 100 nM	
COc1ccc2c(c1N1CCC(CN3CCC4(CC3)CC(S(=O)(=O)c3ccc(Nc5ncc6cc(Cl)c(=O)n(C7CCCC7)c6n5)c(C)c3)C4)CC1)n(C)c(=O)n2C1CCC(=O)NC1=O (centres unmarked) [I-88]	A (A (>75% o))	< 100 nM	
Cc1cc(S(=O)(=O)C2CC3(CCN(CC4CCN(c5cccc6c5n(C)c(=O)n6C5CCC(=O)NC5=O)CC4)CC3)C2)ccc1Nc1ncc(C(F)(F)F)c(C2CCC(C)(O)CC2)n1 (centres unmarked) [I-119]	A (A (>75% o))	< 100 nM	

Next, values leading:

CDK2 degradation 14 h: Average Dmax %	DC50	CDK2 degradation 14 h: Mean external-Abs DC50 (nM)	SMILES
A (A (>75% o))	< 100 nM		Cc1cc(S(=O)(=O)C2CC3(CCN(CC4CCN(c5cccc6c5n(C)c(=O)n6C5CCC(=O)NC5=O)CC4)CC3)C2)ccc1Nc1ncc2cc(Cl)c(=O)n(C3CCCC3)c2n1 (centres unmarked) [I-58]
A (A (>75% o))	100 to 500 nM		Cc1cc(S(=O)(=O)C2CCC3(CC2)CN(CC2CCN(c4ccc5c(c4)n(C)c(=O)n5C4CCC(=O)NC4=O)CC2)C3)ccc1Nc1ncc2cc(Cl)c(=O)n(C3CCCC3)c2n1 (centres unmarked) [I-67]
	< 100 nM		Cc1cc(S(=O)(=O)CCCO[C@H]2CC[C@H](CN3CCC(c4ccc5c(c4)n(C)c(=O)n5C4CCC(=O)NC4=O)CC3)CC2)ccc1Nc1ncc(C(F)(F)F)c(-c2cnn(C)c2)n1 (some centres unmarked) [I-68]
A (A (>75% o))	100 to 500 nM		Cc1cc(S(=O)(=O)C2CC3(CCN(CC4CCN(c5cc(F)cc(NC6CCC(=O)NC6=O)c5)CC4)CC3)C2)ccc1Nc1ncc2cc(Cl)c(=O)n(C3CCCC3)c2n1 (centres unmarked) [I-69]
A (A (>75% o))	< 100 nM		Cc1cc(S(=O)(=O)C2CC3(CCN(CC4CCN(c5ccc(OC6CCC(=O)NC6=O)cc5)CC4)CC3)C2)ccc1Nc1ncc2cc(Cl)c(=O)n(C3CCCC3)c2n1 (centres unmarked) [I-73]
B (B (>50% -75%))	100 to 500 nM		Cc1cc(S(=O)(=O)C2CC3(CCN(CC4CCN(c5ccc(NC6CCC(=O)NC6=O)cc5C)CC4)CC3)C2)ccc1Nc1ncc2cc(Cl)c(=O)n(C3CCCC3)c2n1 (centres unmarked) [I-75]
A (A (>75% o))	< 100 nM		COc1cc(NC2CCC(=O)NC2=O)ccc1N1CCC(CN2CCC3(CC2)CC(S(=O)(=O)c2ccc(Nc4ncc5cc(Cl)c(=O)n(C6CCCC6)c5n4)c(C)c2)C3)CC1 (centres unmarked) [I-77]
B (B (>50% -75%))	100 to 500 nM		Cc1cc(S(=O)(=O)C2CC3(CCN(CC4CCN(c5ccc(N6CCC(=O)NC6=O)cc5)CC4)CC3)C2)ccc1Nc1ncc2cc(Cl)c(=O)n(C3CCCC3)c2n1 [I-79]
C (C (>25% -50%))		E	Cc1cc(S(=O)(=O)C2CC3(CCN(CC4CCN(c5cccc(C6CCC(=O)NC6=O)c5)CC4)CC3)C2)ccc1Nc1ncc2cc(Cl)c(=O)n(C3CCCC3)c2n1 (centres unmarked) [I-80]
B (B (>50% -75%))	100 to 500 nM		Cc1cc(S(=O)(=O)C2CC3(CCN(CC4CCN(c5ccc(NC6CCC(=O)NC6=O)c(F)c5)CC4)CC3)C2)ccc1Nc1ncc2cc(Cl)c(=O)n(C3CCCC3)c2n1 (centres unmarked) [I-90]
A (A (>75% o))	< 100 nM		Cc1cc(S(=N)(=O)C2CC3(CCN(CC4CCN(c5cccc6c5n(C)c(=O)n6C5CCC(=O)NC5=O)CC4)CC3)C2)ccc1Nc1ncc2cc(Cl)c(=O)n(C3CCCC3)c2n1 (centres unmarked) [I-93]
A (A (>75% o))	< 100 nM		Cc1cc(S(=O)(=O)C2CC3(CCN(CC4CCN(c5ccc6c(c5F)n(C)c(=O)n6C5CCC(=O)NC5=O)CC4)CC3)C2)ccc1Nc1ncc2c(n1)N(C1CCCC1)C(=O)N(C)C2 (centres unmarked) [I-125]
A (A (>75% o))	< 100 nM		Cc1cc(S(=O)(=O)C2CC3(CCN(CC4CCN(c5ccc6c(c5F)n(C)c(=O)n6C5CCC(=O)NC5=O)CC4)CC3)C2)ccc1Nc1ncc2cc(Cl)c(=O)n(C(C)C)c2n1 (centres unmarked) [I-128]
